{"source": "patent US8129163B2", "about": "“Gene suitable for alcohol dehydrogenase, vector and transformant” (Kaneka Corporation, priority 2006, dated 2012)", "system": "RMA", "key": {"[1]": {"conditions": "carbonyl compound 1.5 mM, NADH 0.25 mM, pH 6.5, 30° C., acetophenone = 100%"}}, "note": "Read-outs that look alike come from different tables or passages of the source."}
{"smiles": "CC(=O)c1ccccn1", "note": "[2-Acetylpyridine]", "values": [{"measurement": "Relative activity (%) (reducing activity)", "setting": "[1]", "result": 63, "unit": "%"}]}
{"smiles": "CC(=O)c1ccco1", "note": "[2-Acetyrfuran]", "values": [{"measurement": "Relative activity (%) (reducing activity)", "setting": "[1]", "result": 8, "unit": "%"}]}
{"smiles": "CCC(C)=O", "note": "[2-Butanone]", "values": [{"measurement": "Relative activity (%) (reducing activity)", "setting": "[1]", "result": 54, "unit": "%"}]}
{"smiles": "O=C(CCl)c1cccc(Cl)c1", "note": "[2-Chloro-1-(3′-cholophenyl)ethanone]", "values": [{"measurement": "Relative activity (%) (reducing activity)", "setting": "pH 6.5", "result": 20, "unit": "%"}]}
{"smiles": "CCCCCC(C)=O", "note": "[2-Heptanone]", "values": [{"measurement": "Relative activity (%) (reducing activity)", "setting": "[1]", "result": 82, "unit": "%"}]}
{"smiles": "CCCCC(C)=O", "note": "[2-Hexanone]", "values": [{"measurement": "Relative activity (%) (reducing activity)", "setting": "[1]", "result": 87, "unit": "%"}]}
{"smiles": "CCCCCCC(C)=O", "note": "[2-Octanone]", "values": [{"measurement": "Relative activity (%) (reducing activity)", "setting": "[1]", "result": 95, "unit": "%"}]}
{"smiles": "CCCC(C)=O", "note": "[2-Pentanone]", "values": [{"measurement": "Relative activity (%) (reducing activity)", "setting": "[1]", "result": 141, "unit": "%"}]}
{"smiles": "CC(C=O)c1ccccc1", "note": "(stereo not shown) [2-Phenypropionaldehyde]", "values": [{"measurement": "Relative activity (%) (reducing activity)", "setting": "[1]", "result": 37, "unit": "%"}]}
{"smiles": "O=Cc1ccccn1", "note": "[2-Pyridinecarbaldehyde]", "values": [{"measurement": "Relative activity (%) (reducing activity)", "setting": "[1]", "result": 11, "unit": "%"}]}
{"smiles": "CC(=O)CC(=O)Nc1cc(Cl)ccc1Cl", "note": "[2′,5′-Dichloro acetoacetanilide]", "values": [{"measurement": "Relative activity (%) (reducing activity)", "setting": "[1]", "result": 34, "unit": "%"}]}
{"smiles": "CC(=O)c1cccnc1", "note": "[3-Acetylpyridine]", "values": [{"measurement": "Relative activity (%) (reducing activity)", "setting": "[1]", "result": 19, "unit": "%"}]}
{"smiles": "CC(=O)C(Cl)C(C)=O", "note": "[3-Chloro-2,4-pentadione]", "values": [{"measurement": "Relative activity (%) (reducing activity)", "setting": "[1]", "result": 43, "unit": "%"}]}
{"smiles": "CCCCCC(=O)CC", "note": "[3-Octanone]", "values": [{"measurement": "Relative activity (%) (reducing activity)", "setting": "[1]", "result": 3, "unit": "%"}]}
{"smiles": "O=CCCc1ccccc1", "note": "[3-Phenypropionaldehyde]", "values": [{"measurement": "Relative activity (%) (reducing activity)", "setting": "[1]", "result": 112, "unit": "%"}]}
{"smiles": "CC(=O)c1ccncc1", "note": "[4-Acetylpyridine]", "values": [{"measurement": "Relative activity (%) (reducing activity)", "setting": "[1]", "result": 83, "unit": "%"}]}
{"smiles": "CC(=O)CC(C)C", "note": "[4-Methyl-2-pentanone]", "values": [{"measurement": "Relative activity (%) (reducing activity)", "setting": "[1]", "result": 70, "unit": "%"}]}
{"smiles": "O=Cc1ccncc1", "note": "[4-Pyridinecarbaldehyde]", "values": [{"measurement": "Relative activity (%) (reducing activity)", "setting": "[1]", "result": 5, "unit": "%"}]}
{"smiles": "CC(=O)CC(=O)Nc1ccc(Cl)cc1", "note": "[4′-Chroloacetoacetanilide]", "values": [{"measurement": "Relative activity (%) (reducing activity)", "setting": "[1]", "result": 4, "unit": "%"}]}
{"smiles": "CC(=O)c1cc2ccoc2cn1", "note": "[5-Acetylfuro[2.3-c]pyridine]", "values": [{"measurement": "Relative activity (%) (reducing activity)", "setting": "[1]", "result": 63, "unit": "%"}]}
{"smiles": "CC(=O)CC(C)=O", "note": "[Acethylacetone]", "values": [{"measurement": "Relative activity (%) (reducing activity)", "setting": "[1]", "result": 19, "unit": "%"}]}
{"smiles": "CC(=O)CC(N)=O", "note": "[Acetoacetamide]", "values": [{"measurement": "Relative activity (%) (reducing activity)", "setting": "[1]", "result": 10, "unit": "%"}]}
{"smiles": "CC(=O)CC(=O)Nc1ccccc1", "note": "[Acetoacetoanilide]", "values": [{"measurement": "Relative activity (%) (reducing activity)", "setting": "[1]", "result": 1, "unit": "%"}]}
{"smiles": "CC(C)=O", "note": "[Acetone]", "values": [{"measurement": "Relative activity (%) (reducing activity)", "setting": "[1]", "result": 28, "unit": "%"}]}
{"smiles": "CC(=O)c1ccccc1", "note": "[Acetophenone]", "values": [{"measurement": "Relative activity (%) (reducing activity)", "setting": "[1]", "result": 100, "unit": "%"}]}
{"smiles": "CC(=O)c1cnccn1", "note": "[Acetypyrazine]", "values": [{"measurement": "Relative activity (%) (reducing activity)", "setting": "[1]", "result": 76, "unit": "%"}]}
{"smiles": "O=Cc1ccccc1", "note": "[Benzaldehyde]", "values": [{"measurement": "Relative activity (%) (reducing activity)", "setting": "[1]", "result": 29, "unit": "%"}]}
{"smiles": "CC(=O)CC(=O)OCc1ccccc1", "note": "[Benzyl acetoacetate]", "values": [{"measurement": "Relative activity (%) (reducing activity)", "setting": "[1]", "result": 115, "unit": "%"}]}
{"smiles": "CC(=O)CCc1ccccc1", "note": "[Benzylacetone]", "values": [{"measurement": "Relative activity (%) (reducing activity)", "setting": "[1]", "result": 33, "unit": "%"}]}
{"smiles": "O=C1CCCC1", "note": "[Cyclopentanone]", "values": [{"measurement": "Relative activity (%) (reducing activity)", "setting": "[1]", "result": 10, "unit": "%"}]}
{"smiles": "CCOC(=O)C(Cl)C(C)=O", "note": "(stereo not shown) [Ethyl 2-chloroacetoacetate]", "values": [{"measurement": "Relative activity (%) (reducing activity)", "setting": "[1]", "result": 26, "unit": "%"}]}
{"smiles": "CCOC(=O)CC(C)=O", "note": "[Ethyl 3-oxobutanoate]", "values": [{"measurement": "Relative activity (%) (reducing activity)", "setting": "[1]", "result": 93, "unit": "%"}]}
{"smiles": "CCCC(=O)CC(=O)OCC", "note": "[Ethyl 3-oxohexanate]", "values": [{"measurement": "Relative activity (%) (reducing activity)", "setting": "[1]", "result": 2, "unit": "%"}]}
{"smiles": "CCOC(=O)c1ccc(C(C)=O)cc1", "note": "[Ethyl 4-acetylbenzoate]", "values": [{"measurement": "Relative activity (%) (reducing activity)", "setting": "[1]", "result": 70, "unit": "%"}]}
{"smiles": "CCOC(=O)CC(=O)CN=[N+]=[N-]", "note": "[Ethyl 4-azideacetoacetate]", "values": [{"measurement": "Relative activity (%) (reducing activity)", "setting": "[1]", "result": 21, "unit": "%"}]}
{"smiles": "CCOC(=O)CC(=O)COCc1ccccc1", "note": "[Ethyl 4-benzyloxyacetoacetate]", "values": [{"measurement": "Relative activity (%) (reducing activity)", "setting": "[1]", "result": 10, "unit": "%"}]}
{"smiles": "CCOC(=O)CC(=O)CCl", "note": "[Ethyl 4-chloroacetoacetate]", "values": [{"measurement": "Relative activity (%) (reducing activity)", "setting": "[1]", "result": 52, "unit": "%"}]}
